In brackets after ≈: the same amount, converted by molar mass.
Experiments:
Test in all cases: MIC, Staphylococcus panel (Table I-2)
Type in all cases: cell-based
[1] = tested on: Staphylococcus hominis (CHUG-Shom4); conditions: 18 h, 4% DMSO
Description: (§1) We used the previously described protocol, with subtle modifications. The microdilution method recommended by the Clinical and Laboratory Standard Institute [M07-A9, Vol. 32, N^o 2] was used. The activity of bis-indolic compounds was tested against 35 bacterial strains belonging to 12 different Staphylococcus species.
(§2) Bacterial inocula were prepared in Mueller Hinton broth (MH2, BioMerieux, Marcy L'Etoile, France). They were dispensed in 96 well microtiter plates (5×10^5 CFU/ml of final inoculum, 192 μL per well). Indolic compounds diluted in pure DMSO (8 μL per well, concentrated 25 times) were added to the wells as to obtain two-fold serial concentrations (0.5-32 mg/L of final concentrations). The final concentration of DMSO was 4% in each well.
(§3) To avoid cross-contaminations in microtiter plates, one row was left blank between each strain tested. Microplates were incubated for 18 h at 37° C. in ambient air or at 37° C. in 5% CO2 enriched atmosphere for fastidious species. Then MICs were read visually and, in case of visual reading difficulties, confirmed using a spectrophotometer at a wavelength of 630 nm (BioTek® EL808 Absorbance Microplate Reader). MICs corresponded to the minimum bis-indolic compound concentration that allowed complete visual growth inhibition of bacteria. Drug-free cultures served as growth controls.
(§4) Coagulase-negative Staphylococcus strains included three reference strains purchased from CRBIP: a methicillin-susceptible S. epidermidis strain (ATCC 12228), a methicillin-resistant S. epidermidis strain (ATCC 49461), and a methicillin-susceptible S. sciuri strain (ATCC 29061). We also used clinical strains belonging to the following coagulase-negative Staphylococcus species: S. auricularis (two strains), S. warneri (five strains), S. capitis (five strains), S. haemolyticus (four strains), S. hominis (seven strains), S. cohnii (two strains), and S. saprophyticus, S. caprae and S. simulans (one strain each). Identification of the clinical strains was obtained using VITEK® 2 System (Biomérieux).

[2] = tested on: Staphylococcus warneri (CHUG-Swar5); conditions: 18 h, 4% DMSO
Description: as §1, §2, §3, §4

[3] = tested on: Staphylococcus haemolyticus (CHUG-Shae1); conditions: 18 h, 4% DMSO
Description: as §1, §2, §3, §4

[4] = tested on: Staphylococcus haemolyticus (CHUG-Scap4); conditions: 18 h, 4% DMSO
Description: as §1, §2, §3, §4

[5] = tested on: Staphylococcus capitis (CHUG-Scap4); conditions: 18 h, 4% DMSO
Description: as §1, §2, §3, §4

[6] = tested on: Staphylococcus hominis (CHUG-Shom8); conditions: 18 h, 4% DMSO
Description: as §1, §2, §3, §4

[7] = tested on: Staphylococcus epidermidis ATCC 49461; conditions: ATCC49461, 18 h, 4% DMSO
Description: as §1, §2, §3, §4

[8] = tested on: Staphylococcus warneri (CHUG-Swar7); conditions: 18 h, 4% DMSO
Description: as §1, §2, §3, §4

[9] = tested on: Staphylococcus auricularis (CHUG-Saur3); conditions: 18 h, 4% DMSO
Description: as §1, §2, §3, §4

[10] = tested on: Staphylococcus capitis (CHUG-Scap1); conditions: 18 h, 4% DMSO
Description: as §1, §2, §3, §4

[11] = tested on: Staphylococcus epidermidis ATCC 12228; conditions: ATCC12228, 18 h, 4% DMSO
Description: as §1, §2, §3, §4

[12] = tested on: Staphylococcus hominis (CHUG-Shom3); conditions: 18 h, 4% DMSO
Description: as §1, §2, §3, §4

[13] = tested on: Staphylococcus hominis (CHUG-Shom1); conditions: 18 h, 4% DMSO
Description: as §1, §2, §3, §4

[14] = tested on: Staphylococcus hominis (CHUG-Shom6); conditions: 18 h, 4% DMSO
Description: as §1, §2, §3, §4

[15] = tested on: Staphylococcus caprae (CHUG-Scapra1); conditions: 18 h, 4% DMSO
Description: as §1, §2, §3, §4

[16] = tested on: Staphylococcus saprophyticus (CHUG-Ssap2); conditions: 18 h, 4% DMSO
Description: as §1, §2, §3, §4

[17] = tested on: Staphylococcus capitis (CHUG-Scap7); conditions: 18 h, 4% DMSO
Description: as §1, §2, §3, §4

[18] = tested on: Staphylococcus sciuri ATCC 29061; conditions: Mammaliicoccus sciuri, ATCC29061, 18 h, 4% DMSO
Description: as §1, §2, §3, §4

[19] = tested on: Staphylococcus haemolyticus (CHUG-Scap5); conditions: 18 h, 4% DMSO
Description: as §1, §2, §3, §4

[20] = tested on: Staphylococcus capitis (CHUG-Scap6); conditions: 18 h, 4% DMSO
Description: as §1, §2, §3, §4

[21] = tested on: Staphylococcus warneri (CHUG-Swar1); conditions: 18 h, 4% DMSO
Description: as §1, §2, §3, §4

[22] = tested on: Staphylococcus warneri (CHUG-Swar4); conditions: 18 h, 4% DMSO
Description: as §1, §2, §3, §4

[23] = tested on: Staphylococcus warneri (CHUG-Swar6); conditions: 18 h, 4% DMSO
Description: as §1, §2, §3, §4

[24] = tested on: Staphylococcus cohnii (CHUG-Scoh2); conditions: 18 h, 4% DMSO
Description: as §1, §2, §3, §4

[25] = tested on: Staphylococcus haemolyticus (CHUG-Scap6); conditions: 18 h, 4% DMSO
Description: as §1, §2, §3, §4

[26] = tested on: Staphylococcus cohnii (CHUG-Scoh1) (MRSA); conditions: 18 h, 4% DMSO
Description: as §1, §2, §3, §4

[27] = tested on: Staphylococcus hominis (CHUG-Shom7); conditions: 18 h, 4% DMSO
Description: as §1, §2, §3, §4

[28] = tested on: Staphylococcus hominis (CHUG-Shom5); conditions: 18 h, 4% DMSO
Description: as §1, §2, §3, §4

[29] = tested on: Staphylococcus auricularis (CHUG-Saur1); conditions: 18 h, 4% DMSO
Description: as §1, §2, §3, §4

[30] = tested on: Staphylococcus simulans (CHUG-Ssim1); conditions: 18 h, 4% DMSO
Description: as §1, §2, §3, §4

[31] = tested on: Staphylococcus capitis (CHUG-Scap5); conditions: 18 h, 4% DMSO
Description: as §1, §2, §3, §4

[32] = tested on: Staphylococcus aureus MRSA 252; conditions: 18 h, 4% DMSO
Description: as §1, §2, §3
We used four Staphylococcus aureus strains. Two reference strains were provided by the French reference center for Staphylococcus spp. (Lyon, France), including one methicillin-susceptible (MSSA 476) and one methicillin-resistant (MRSA 252) S. aureus strains. The two remaining S. aureus strains were purchased from the CRBIP (Centre de Ressources Biologiques de l'Institut Pasteur): a vancomycin-intermediate strain (ATCC 106414) and a S. aureus strain (SA-1199B) resistant to fluoroquinolones due to overexpression of the NorA multidrug efflux pump.

| SMILES | MIC [1] [µg/mL] | MIC [2] [µg/mL] | MIC [3] [µg/mL] | MIC [4] [µg/mL] | MIC [5] [µg/mL] | MIC [6] [µg/mL] | MIC [7] [µg/mL] | MIC [8] [µg/mL] | MIC [9] [µg/mL] | MIC [10] [µg/mL] | MIC [11] [µg/mL] | MIC [12] [µg/mL] | MIC [13] [µg/mL] | MIC [14] [µg/mL] | MIC [15] [µg/mL] | MIC [16] [µg/mL] | MIC [17] [µg/mL] | MIC [18] [µg/mL] | MIC [19] [µg/mL] | MIC [20] [µg/mL] | further results |
| --- | --- | --- | --- | --- | --- | --- | --- | --- | --- | --- | --- | --- | --- | --- | --- | --- | --- | --- | --- | --- | --- |
| CC(C)(C)OC(=O)NCC(NC(=O)C(=O)c1c[nH]c2ccc(Br)cc12)c1c[nH]c2ccc(Br)cc12 (stereo not shown) [Compound 4, tert-Butyl(2-(5-bromo-1H-indol-3-yl)-2-(2-(5-bromo-1H-indol-3-yl)-2-oxoacetamido)ethyl) carbamate] | 1 (≈ 1.65 µM) | 1 (≈ 1.65 µM) | 1 (≈ 1.65 µM) | 2 (≈ 3.31 µM) | 1 (≈ 1.65 µM) | 1 (≈ 1.65 µM) | 1 (≈ 1.65 µM) | 1 (≈ 1.65 µM) | 1 (≈ 1.65 µM) | 1 (≈ 1.65 µM) | 1 (≈ 1.65 µM) | 1 (≈ 1.65 µM) | 2 (≈ 3.31 µM) | 1 (≈ 1.65 µM) | 1 (≈ 1.65 µM) | 1 (≈ 1.65 µM) | 1 (≈ 1.65 µM) | 2 (≈ 3.31 µM) | 1 (≈ 1.65 µM) | 1 (≈ 1.65 µM) | MIC [21]: 1 µg/mL (≈ 1.65 µM); MIC [22]: 1 µg/mL (≈ 1.65 µM); MIC [23]: 1 µg/mL (≈ 1.65 µM); MIC [24]: 2 µg/mL (≈ 3.31 µM); MIC [25]: 2 µg/mL (≈ 3.31 µM); MIC [26]: 1 µg/mL (≈ 1.65 µM); MIC [27]: 1 µg/mL (≈ 1.65 µM); MIC [28]: 1 µg/mL (≈ 1.65 µM); MIC [29]: 1 µg/mL (≈ 1.65 µM); MIC [30]: 1 µg/mL (≈ 1.65 µM); MIC [31]: 1 µg/mL (≈ 1.65 µM); MIC [32]: 1 µg/mL (≈ 1.65 µM) |
| CC(NC(=O)C(=O)c1c[nH]c2ccc(Br)cc12)c1c[nH]c2ccc(Br)cc12 (stereo not shown) [Compound 5, 2-(5-Bromo-1H-indol-3-yl)-N-(1-(5-bromo-1H-indol-3-yl)ethyl)-2-oxoacetamide] | 2 (≈ 4.09 µM) | 1 (≈ 2.04 µM) | 4 (≈ 8.18 µM) | 4 (≈ 8.18 µM) | 1 (≈ 2.04 µM) | 2 (≈ 4.09 µM) | 2 (≈ 4.09 µM) | 2 (≈ 4.09 µM) | 1 (≈ 2.04 µM) | 2 (≈ 4.09 µM) | 2 (≈ 4.09 µM) | 2 (≈ 4.09 µM) | 4 (≈ 8.18 µM) | 2 (≈ 4.09 µM) | 2 (≈ 4.09 µM) | 2 (≈ 4.09 µM) | 2 (≈ 4.09 µM) | 4 (≈ 8.18 µM) | 4 (≈ 8.18 µM) | 1 (≈ 2.04 µM) | MIC [21]: 2 µg/mL (≈ 4.09 µM); MIC [22]: 2 µg/mL (≈ 4.09 µM); MIC [23]: 2 µg/mL (≈ 4.09 µM); MIC [24]: 2 µg/mL (≈ 4.09 µM); MIC [25]: 4 µg/mL (≈ 8.18 µM); MIC [26]: 2 µg/mL (≈ 4.09 µM); MIC [27]: 2 µg/mL (≈ 4.09 µM); MIC [28]: 1 µg/mL (≈ 2.04 µM); MIC [29]: 1 µg/mL (≈ 2.04 µM); MIC [30]: 2 µg/mL (≈ 4.09 µM); MIC [31]: 2 µg/mL (≈ 4.09 µM); MIC [32]: 2 µg/mL (≈ 4.09 µM) |

Source: US9321722B2, “Bis-indolic derivatives, their uses in particular as antibacterials” (UNIVERSITE JOSEPH FOURIER, priority 2011, dated 2016)
